Assay results from ChEMBL document CHEMBL1157492, “Discovery of potent and cell-active allosteric dual Akt 1 and 2 inhibitors” (Bioorg Med Chem Lett, 2008).
Active and inactive are the calls of the source. No cut-off for these calls is given here.

How the values were obtained:
[1] = target: T1, RAC-alpha serine/threonine-protein kinase (Homo sapiens, UniProt P31749); experiment: Inhibition of Akt1 phosphorylation by HTRF assay
[2] = target: T2, RAC-beta serine/threonine-protein kinase (Homo sapiens, UniProt P31751); experiment: Inhibition of Akt2 phosphorylation in human by C33a cells by IPKA assay; format: cell-based
T2 sequence (P31751 whole entry): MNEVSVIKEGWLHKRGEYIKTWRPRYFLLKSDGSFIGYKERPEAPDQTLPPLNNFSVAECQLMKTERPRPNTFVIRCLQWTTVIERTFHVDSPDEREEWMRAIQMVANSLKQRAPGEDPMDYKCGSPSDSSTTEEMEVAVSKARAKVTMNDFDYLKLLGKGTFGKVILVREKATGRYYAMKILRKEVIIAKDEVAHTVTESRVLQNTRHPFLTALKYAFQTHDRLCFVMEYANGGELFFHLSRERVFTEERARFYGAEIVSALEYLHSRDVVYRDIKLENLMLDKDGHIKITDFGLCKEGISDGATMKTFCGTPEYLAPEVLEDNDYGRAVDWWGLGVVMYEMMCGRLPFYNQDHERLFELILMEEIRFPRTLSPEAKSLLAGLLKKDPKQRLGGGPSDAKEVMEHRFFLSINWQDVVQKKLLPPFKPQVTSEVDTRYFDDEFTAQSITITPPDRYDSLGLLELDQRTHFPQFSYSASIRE

[3] = target: T2, RAC-beta serine/threonine-protein kinase; experiment: Inhibition of Akt2 phosphorylation by HTRF assay
[4] = target: T1, RAC-alpha serine/threonine-protein kinase; experiment: Inhibition of Akt1 phosphorylation in human by C33a cells by IPKA assay; format: cell-based

T1 sequence (P31749 whole entry): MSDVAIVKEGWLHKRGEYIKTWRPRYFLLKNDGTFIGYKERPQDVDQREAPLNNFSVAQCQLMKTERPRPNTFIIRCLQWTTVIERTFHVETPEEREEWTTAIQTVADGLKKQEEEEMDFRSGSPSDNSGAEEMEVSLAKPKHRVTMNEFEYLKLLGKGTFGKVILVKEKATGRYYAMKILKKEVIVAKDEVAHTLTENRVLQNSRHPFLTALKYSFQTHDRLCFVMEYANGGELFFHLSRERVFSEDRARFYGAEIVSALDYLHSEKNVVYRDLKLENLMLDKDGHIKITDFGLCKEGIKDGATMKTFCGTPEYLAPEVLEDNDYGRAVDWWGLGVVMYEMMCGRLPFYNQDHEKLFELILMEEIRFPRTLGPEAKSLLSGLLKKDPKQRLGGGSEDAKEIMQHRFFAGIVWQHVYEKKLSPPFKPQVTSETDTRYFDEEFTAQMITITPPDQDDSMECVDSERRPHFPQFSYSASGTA

IC50 [1]	IC50 [2]	IC50 [3]	IC50 [4]	Activity [2]	Activity [4]	SMILES
5 nM	145 nM	16 nM	15 nM	–	–	CC(=O)N1CCN(c2ncc3cc(-c4ccccc4)c(-c4ccc(CN5CCC(c6nnc(-c7ccccn7)[nH]6)CC5)cc4)nc3n2)CC1
7 nM	168 nM	45 nM	17 nM	–	–	OC1CCN(c2ncc3cc(-c4ccccc4)c(-c4ccc(CN5CCC(c6nnc(-c7ccccn7)[nH]6)CC5)cc4)nc3n2)CC1
12 nM	27 nM	9 nM	6 nM	–	–	CN1CC(N2CCN(c3ncc4cc(-c5ccccc5)c(-c5ccc(CN6CCC(c7nnc(-c8ccccn8)[nH]7)CC6)cc5)nc4n3)CC2)C1
7 nM	196 nM	23 nM	20 nM	–	–	CS(=O)(=O)N1CCN(c2ncc3cc(-c4ccccc4)c(-c4ccc(CN5CCC(c6nnc(-c7ccccn7)[nH]6)CC5)cc4)nc3n2)CC1
18 nM	229 nM	93 nM	36 nM	–	–	c1ccc(-c2cc3cnc(N4CCCCC4)nc3nc2-c2ccc(CN3CCC(c4nnc(-c5ccccn5)[nH]4)CC3)cc2)cc1
9 nM	41 nM	31 nM	17 nM	–	–	OCCN1CCN(c2ncc3cc(-c4ccccc4)c(-c4ccc(CN5CCC(c6nnc(-c7ccccn7)[nH]6)CC5)cc4)nc3n2)CC1
18 nM	177 nM	40 nM	13 nM	–	–	CN(C)C(=O)N1CCN(c2ncc3cc(-c4ccccc4)c(-c4ccc(CN5CCC(c6nnc(-c7ccccn7)[nH]6)CC5)cc4)nc3n2)CC1
6 nM	19 nM	6 nM	3 nM	–	–	CN(C)CC(=O)N1CCN(c2ncc3cc(-c4ccccc4)c(-c4ccc(CN5CCC(c6nnc(-c7ccccn7)[nH]6)CC5)cc4)nc3n2)CC1
5 nM	243 nM	43 nM	19 nM	–	–	c1ccc(-c2cc3cnc(N4CCOCC4)nc3nc2-c2ccc(CN3CCC(c4nnc(-c5ccccn5)[nH]4)CC3)cc2)cc1
9 nM	52 nM	27 nM	36 nM	–	–	CN1CCN(c2ncc3cc(-c4ccccc4)c(-c4ccc(CN5CCC(c6nnc(-c7ccccn7)[nH]6)CC5)cc4)nc3n2)CC1

More lines, now with the values behind:

SMILES	IC50 [1]	IC50 [2]	IC50 [3]	IC50 [4]	Activity [2]	Activity [4]
CN1CCN(c2nccc3cc(-c4ccccc4)c(-c4ccc(CN5CCC(c6nnc(-c7ccccn7)[nH]6)CC5)cc4)nc23)CC1	720 nM	–	3570 nM	–	inactive	inactive
C[C@@H]1CN(c2ncc3cc(-c4ccccc4)c(-c4ccc(CN5CCC(c6nnc(-c7ccccn7)[nH]6)CC5)cc4)nc3n2)C[C@H](C)N1	45 nM	101 nM	77 nM	46 nM	–	–
CN1CCN(c2nccc3nc(-c4ccc(CN5CCC(c6nnc(-c7ccccn7)[nH]6)CC5)cc4)c(-c4ccccc4)cc23)CC1	285 nM	–	539 nM	–	inactive	inactive
CN1CCN(c2cc3cc(-c4ccccc4)c(-c4ccc(CN5CCC(c6nnc(-c7ccccn7)[nH]6)CC5)cc4)nc3cn2)CC1	740 nM	133 nM	59 nM	924 nM	–	–
CSc1ncc2cc(-c3ccccc3)c(-c3ccc(CNCCC(=O)c4ccccc4N)cc3)nc2n1	–	388 nM	–	78 nM	–	–
CN(C)C1CCN(c2ncc3cc(-c4ccccc4)c(-c4ccc(CN5CCC(c6nnc(-c7ccccn7)[nH]6)CC5)cc4)nc3n2)CC1	10 nM	70 nM	22 nM	23 nM	–	–
c1ccc(-c2cc3cnc(-n4ccnc4)nc3nc2-c2ccc(CN3CCC(c4nnc(-c5ccccn5)[nH]4)CC3)cc2)cc1	5 nM	684 nM	73 nM	35 nM	–	–
C[C@H]1CN(c2ncc3cc(-c4ccccc4)c(-c4ccc(CN5CCC(c6nnc(-c7ccccn7)[nH]6)CC5)cc4)nc3n2)CCN1	17 nM	125 nM	47 nM	75 nM	–	–
C[C@@H]1CN(c2ncc3cc(-c4ccccc4)c(-c4ccc(CN5CCC(c6nnc(-c7ccccn7)[nH]6)CC5)cc4)nc3n2)CCN1	8 nM	44 nM	25 nM	36 nM	–	–
O[C@@H]1CN(c2ncc3cc(-c4ccccc4)c(-c4ccc(CN5CCC(c6nnc(-c7ccccn7)[nH]6)CC5)cc4)nc3n2)CCN1	25 nM	421 nM	67 nM	61 nM	–	–
c1ccc(-c2cc3cnc(N4CCn5cnnc5C4)nc3nc2-c2ccc(CN3CCC(c4nnc(-c5ccccn5)[nH]4)CC3)cc2)cc1	19 nM	735 nM	138 nM	125 nM	–	–
CN(C)CCNc1ncc2cc(-c3ccccc3)c(-c3ccc(CN4CCC(c5nnc(-c6ccccn6)[nH]5)CC4)cc3)nc2n1	79 nM	223 nM	154 nM	208 nM	–	–
C[C@@H]1CN[C@@H](C)CN1c1ncc2cc(-c3ccccc3)c(-c3ccc(CN4CCC(c5nnc(-c6ccccn6)[nH]5)CC4)cc3)nc2n1	43 nM	199 nM	29 nM	194 nM	–	–
FC1(F)CCN(c2ncc3cc(-c4ccccc4)c(-c4ccc(CN5CCC(c6nnc(-c7ccccn7)[nH]6)CC5)cc4)nc3n2)C1	20 nM	462 nM	252 nM	75 nM	–	–
C[C@@H]1CN(c2ncc3cc(-c4ccccc4)c(-c4ccc(CN5CCC(c6nnc(-c7ccccn7)[nH]6)CC5)cc4)nc3n2)C[C@H](C)O1	28 nM	184 nM	102 nM	42 nM	–	–
O=S1(=O)CCN(c2ncc3cc(-c4ccccc4)c(-c4ccc(CN5CCC(c6nnc(-c7ccccn7)[nH]6)CC5)cc4)nc3n2)CC1	38 nM	–	297 nM	–	–	inactive
